Data as given in patent US7078395B1, “Methods for treating or preventing cancer by preventing, inhibiting or arresting cell cycling” (priority 1999, dated 2006).
“And” between values parts separate entries of the source, which are not always exact repeats. Identical values can stand only once.

How the values were obtained:
[1] = tested on: MCF-7 breast cancer cells; experiment: Irreversible inhibition of cell growth, Stage 1 and Stage 2 (Coulter cell counter); assay type: cell-based; details: for effect on cell growth compared with controls, Stage 1: 5 μm and 1 μm; for effect on cell growth compared with controls, Stage 1 / cell numbers, % of the control cell number, Stage 1: 6 days; for effect on cell numbers, Stage 2 (irreversible growth inhibition): re-seeded after 6-day treatment, further 6 days without drug
Protocol: MCF-7 breast cancer cells were seeded into multi-well culture plates at a density of 10^5 cells/well. Cells were allowed to attach and grown until about 30% confluent when they were treated as follows:
Cells were grown for 6 days in growth medium containing the above drugs with changes of medium/drug every 3 days. At the end of this period cell numbers were counted using a Coulter cell counter.
After treatment of cells for a 6-day period with the above drugs cells were re-seeded at a density of 10^4 Cells/well. No further treatments were added. Cells were allowed to continue to grow for a further 6 days in the presence of growth medium. At the end of this period cell numbers were again counted.
Stages 1 and 2 described above were repeated using Control—no treatment, EMATE 20 μM and EMATE 5 μM.
MCF-7 breast cancer cells were seeded into multi-well culture plates at a density of 10^5 cells/well. Cells were allowed to attach and grown until about 30% confluent when they were treated as follows: • Control—no treatment • Compound of Interest (COI) 20 μM
Cells were grown for 6 days in growth medium containing the COI with changes of medium/COI every 3 days. At the end of this period cell numbers were counted using a Coulter cell counter.
After treatment of cells for a 6-day period with the COI cells were re-seeded at a density of 10^4 cells/well. No further treatments were added. Cells were allowed to continue to grow for a further 6 days in the presence of growth medium. At the end of this period cell numbers were again counted.

MCF7 cells [2] = experiment: Proportion of cells in mitosis (PI stained cytospins, confocal microscopy); assay type: cell-based; details: 24 hours (control 4%)
Protocol: To determine the proportion of cells in mitosis, drug treated cells were collected by trypsinisation and cytospins prepared. Cells were fixed in ice cold methanol for 5 minutes, air dried and DNA was stained using propidium iodide (PI) (0.1 mg/ml in phosphate buffered saline (PBS) containing 10% (v/v) newborn calf serum and 0.05% (w/v) sodium azide). Cells were analysed by confocal microscopy using a Zeiss Axiovert 100 M microscope equipped with the LSM 510 confocal system (Zeiss, Jena, Germany).
Effect of estrone derivatives on mitosis in MCF7 cells. MCF7 cells were treated with the indicated compounds for 24 hours. Cells were recovered by trypsinisation and cytospins prepared. DNA was stained with PI and cells in mitosis (i.e., with condensed chromosomes) determined as a percentage of total cells.

[3] = tested on: MCF7, ZR-75-1, CAL51 and CAMA1 cells; experiment: Microtitre plate growth inhibition assay (FIG. 14); assay type: cell-based
CAMA1 cells [4] = experiment: DNA content by flow cytometry of propidium iodide stained cells; assay type: cell-based; details: CAMA1, 500 nM
Protocol: (§1) MCF7, CAL51, CAMA1 and ZR-75-1 breast cancer derived cell lines were obtained from ATCC (MCF7, CAMA1, ZR-75-1) or from the Dutrillaux laboratory (CAL51) (22) and maintained in Dulbecco's modified Eagle's medium (DMEM) supplemented with 10% (v/v) fetal calf serum and antibiotics.
(§2) DNA content was determined by flow cytometric analysis of propidium iodide stained cells and TdT-mediated dUTP-nick end labelling (TUNEL), respectively, as described (20). The proportion of cells in G2/M phase of the cell cycle was calculated as a proportion of cells with […] DNA content. The proportion of cells with <G1 DNA content was calculated as a percentage of total cells.

MCF7 cells [5] = experiment: as above; assay type: cell-based; details: MCF7, 500 nM
Protocol: as §1, §2

CAL51 cells [6] = experiment: as above; assay type: cell-based; details: CAL51, 500 nM
Protocol: as §1, §2

ZR-75-1 cells [7] = experiment: as above; assay type: cell-based; details: ZR-75-1, 500 nM
Protocol: as §1, §2

CAMA1 cells [8] = experiment: TUNEL assay; assay type: cell-based; details: CAMA1, 500 nM for 72 hours
Protocol: as §2
(§3) We used the TUNEL assay to confirm that the cell death detected by flow cytometry of PI stained cells was due to apoptosis. Following exposure to 2-EtEMATE (500 nM for 72 hours) there was a significant increase in the proportion of CAL51 and CAMA1 cells undergoing apoptosis (60% and 37% TUNEL positive cells, respectively) (FIG. 16). By contrast, there was only a modest increase in TUNEL positivity in MCF7 or ZR-75-l cells (7% and 10%, respectively) treated with 2-EtEMATE at this concentration.

MCF7 cells [9] = experiment: TUNEL assay; assay type: cell-based; details: MCF7, 500 nM for 72 hours
Protocol: as §2, §3

CAL51 cells [10] = experiment: TUNEL assay; assay type: cell-based; details: CAL51, 500 nM for 72 hours
Protocol: as §2, §3

ZR-75-1 cells [11] = experiment: TUNEL assay; assay type: cell-based; details: ZR-75-1, 500 nM for 72 hours
Protocol: as §2, §3

[12] = tested on: nitrosomethylurea-induced mammary tumours; experiment: Growth of NMU-induced mammary tumours in intact rats; assay type: in vivo, rat; details: 20 mg/kg/day, p.o., 11 days, individual animals
Protocol: The effect of 2-MeOEMATE on mammary tumour growth was examined in a preliminary study using Ludwig rats (Harlan Olac, Bicester, UK) in which tumours were induced by inoculation of NMU. Tumour development was monitored regularly and when 0.5-1.0 cm^3 in volume, animals received vehicle (propylene glycol, 200 μl/day, p.o.), 2-MeOEMATE (20 mg/kg/day, p.o.) or 2-MeOE1 (20 mg/kg/day, p.o.) daily for an 11 day period. Tumour length and width was measured with callipers and tumour volumes calculated as described (21).

[13] = tested on: MCF-7 breast cancer cells; experiment: Cell Titer 96 cell proliferation assay, 4-day drug exposure; assay type: cell-based; details: 4 days
Protocol: (§4) MCF-7 (ER+) and MDA-MB-231 (ER−) breast cancer cells were obtained from the American Type Culture Collection (Rockville, Md.). Cells were routinely cultured in 25 cm^2 culture flasks in Eagle's minimum essential medium (EMEM) with Hepes buffer (20 mM). This medium was supplemented with L-glutamine (2 mM), sodium hydrogen carbonate (10 mM), 1% non-essential amino acids and 5% (v/v) foetal calf serum (FCS). Before adding test compounds, cells were washed with phosphate-buffered saline (PBS) and treatments added in phenol-red free medium containing 2% stripped FCS and supplements. The effects of 2-MeOE1 or 2-MeOEMATE on the growth of MCF-7 cells was assessed using a Cell Titer 96 cell proliferation assay (Promega, Southampton, Hants, UK) according to the manufacturers' instructions. For this, cells (5000 per well) were cultured in medium containing phenol-red and 10% FCS and were exposed to a drug for 4 days before the assay was performed. For MDA-MB-231 cells, cell numbers were determined using a Coulter counter.

[14] = tested on: MCF-7 breast cancer cells; experiment: Cell morphology by photomicrographs; assay type: cell-based; details: 1 μM, 24 h
Protocol: as §4
Photomicrographs of control and treated cells were taken under normal conditions of light and exposure using an Olympus SL35 Type 12 camera under an Olympus CK2 microscope (×100 magnification).

Compound: CCc1cc2c(cc1O)CC[C@@H]1[C@@H]2CC[C@]2(C)C(=O)CC[C@@H]12 [2-EtE1, 2-Ethylestrone, reference compound]
- effect on cell growth compared with controls, Stage 1 [1]: little effect on cell growth
- effect on cell numbers, Stage 2 (irreversible growth inhibition) [1]: little effect on cell numbers
- mitotic cells, percentage of total cells (MCF7 cells [2]; 500 nM): 4%
- mitotic cells, percentage of total cells (MCF7 cells [2]; 5 μM): 6%

Compound: CCc1cc2c(cc1OS(N)(=O)=O)CCC1C2CCC2(C)C(=O)CCC12 (stereo not shown) [2-EtEMATE, 2-Ethylestrone-3-O-sulfamate]
- lowest dose that gave significant growth inhibition in each cell line [3]: 500 nM
- <G1 DNA content, percent of total cells (CAMA1 cells [4]; 24 hours): 4%
- G1/S, percentage of total cells with a 2N to 4N DNA content (CAMA1 cells [4]; 24 hours): 33%
- <G1 DNA content, percent of total cells (CAMA1 cells [4]; 48 hours): 16%
- G1/S, percentage of total cells with a 2N to 4N DNA content (CAMA1 cells [4]; 48 hours): 25%
- G2/M, percentage of total cells with a 2N to 4N DNA content (CAMA1 cells [4]; 48 hours): 75%
- <G1 DNA content, percent of total cells (CAMA1 cells [4]; 72 hours): 36%
- G1/S, percentage of total cells with a 2N to 4N DNA content (CAMA1 cells [4]; 72 hours): 33%
- G2/M, percentage of total cells with a 2N to 4N DNA content (CAMA1 cells [4]; 72 hours): 67%
- G1/S, percentage of total cells with a 2N to 4N DNA content (CAMA1 cells [4]; 96 hours): 33%
- G2/M, percentage of total cells with a 2N to 4N DNA content (CAMA1 cells [4]; 96 hours): 67%
- <G1 DNA content, percent of total cells (MCF7 cells [5]; 24 hours): 5%
- G1/S, percentage of total cells with a 2N to 4N DNA content (MCF7 cells [5]; 24 hours): 63%
- G2/M, percentage of total cells with a 2N to 4N DNA content (MCF7 cells [5]; 24 hours): 37%
- <G1 DNA content, percent of total cells (MCF7 cells [5]; 48 hours): 5%
- G1/S, percentage of total cells with a 2N to 4N DNA content (MCF7 cells [5]; 48 hours): 38%
- <G1 DNA content, percent of total cells (MCF7 cells [5]; 72 hours): 12%
- G1/S, percentage of total cells with a 2N to 4N DNA content (MCF7 cells [5]; 72 hours): 34%
- G2/M, percentage of total cells with a 2N to 4N DNA content (MCF7 cells [5]; 72 hours): 66%
- <G1 DNA content, percent of total cells (MCF7 cells [5]; 96 hours): 8%
- G1/S, percentage of total cells with a 2N to 4N DNA content (MCF7 cells [5]; 96 hours): 29%
- G2/M, percentage of total cells with a 2N to 4N DNA content (MCF7 cells [5]; 96 hours): 71%
- <G1 DNA content, percent of total cells (CAL51 cells [6]; 24 hours): 2%
- G1/S, percentage of total cells with a 2N to 4N DNA content (CAL51 cells [6]; 24 hours): 38%
- <G1 DNA content, percent of total cells (CAL51 cells [6]; 48 hours): 10%
- G1/S, percentage of total cells with a 2N to 4N DNA content (CAL51 cells [6]; 48 hours): 18%
- G2/M, percentage of total cells with a 2N to 4N DNA content (CAL51 cells [6]; 48 hours): 82%
- <G1 DNA content, percent of total cells (CAL51 cells [6]; 72 hours): 21%
- G1/S, percentage of total cells with a 2N to 4N DNA content (CAL51 cells [6]; 72 hours): 32%
- G2/M, percentage of total cells with a 2N to 4N DNA content (CAL51 cells [6]; 72 hours): 68%
- G1/S, percentage of total cells with a 2N to 4N DNA content (CAL51 cells [6]; 96 hours): 23%
- G2/M, percentage of total cells with a 2N to 4N DNA content (CAL51 cells [6]; 96 hours): 77%
- <G1 DNA content, percent of total cells (ZR-75-1 cells [7]; 24 hours): 1%
- G1/S, percentage of total cells with a 2N to 4N DNA content (ZR-75-1 cells [7]; 24 hours): 84%
- G2/M, percentage of total cells with a 2N to 4N DNA content (ZR-75-1 cells [7]; 24 hours): 15%
- <G1 DNA content, percent of total cells (ZR-75-1 cells [7]; 48 hours): 6%
- G1/S, percentage of total cells with a 2N to 4N DNA content (ZR-75-1 cells [7]; 48 hours): 60%
- G2/M, percentage of total cells with a 2N to 4N DNA content (ZR-75-1 cells [7]; 48 hours): 40%
- <G1 DNA content, percent of total cells (ZR-75-1 cells [7]; 72 hours): 12%
- G1/S, percentage of total cells with a 2N to 4N DNA content (ZR-75-1 cells [7]; 72 hours): 37%
- G2/M, percentage of total cells with a 2N to 4N DNA content (ZR-75-1 cells [7]; 72 hours): 60% and 63%
- <G1 DNA content, percent of total cells (ZR-75-1 cells [7]; 96 hours): 9%
- G1/S, percentage of total cells with a 2N to 4N DNA content (ZR-75-1 cells [7]; 96 hours): 20%
- G2/M, percentage of total cells with a 2N to 4N DNA content (ZR-75-1 cells [7]; 96 hours): 80%
- TUNEL positive cells (CAMA1 cells [8]): 37%
- TUNEL positive cells (MCF7 cells [9]): 7%
- TUNEL positive cells (CAL51 cells [10]): 60%
- TUNEL positive cells (ZR-75-1 cells [11]): 10%
- cell numbers, % of the control cell number, Stage 1 ([1]; 1 m (so in the source)): 50%
- cell numbers, % of the control cell number, Stage 1 ([1]; 5 μm): 36%
- effect on cell numbers, Stage 2 (irreversible growth inhibition) [1]: severely growth restricted
- mitotic cells, percentage of total cells (MCF7 cells [2]; 500 nM): 29%
- mitotic cells, percentage of total cells (MCF7 cells [2]; 5 μM): 49%

Compound: COc1cc2c(cc1O)CC[C@@H]1[C@@H]2CC[C@]2(C)C(=O)CC[C@@H]12 [2-MeOE1, 2-methoxyoestrone, reference compound]
- reduction in tumour volume [12]: little effect on tumour growth and no change in tumour volume and 25%
- effect on cell growth compared with controls, Stage 1 [1]: little effect on cell growth
- effect on cell numbers, Stage 2 (irreversible growth inhibition) [1]: little effect on cell numbers
- inhibition of proliferation of MCF-7 cells ([13]; 0.1 μM): little effect
- inhibition of proliferation of MCF-7 cells ([13]; 1.0 μM): little effect
- inhibition of proliferation of MCF-7 cells ([13]; 10 μM): 19%
- effect on cell morphology [14]: little effect on cell morphology
